# Assay results published in patent US8404677B2, “Kinase inhibitors” (Genosco, priority 2009, dated 2013).
# Columns and labels:
# MDA-MB-468 = test: cells; type: cell-based; details: MDA-MB-468 (Breast Cancer)
# SF-539 = test: cells; type: cell-based; details: SF-539 (CNS Cancer)
# FAK = molecular target: T1, FAK (Homo sapiens, UniProt Q05397); test: In vitro kinase inhibition, Ambit Biosciences panel; type: binding; details: lower numbers indicate stronger activities
# T1 construct: purchased Ambit Biosciences
# T1 sequence (Q05397 whole entry): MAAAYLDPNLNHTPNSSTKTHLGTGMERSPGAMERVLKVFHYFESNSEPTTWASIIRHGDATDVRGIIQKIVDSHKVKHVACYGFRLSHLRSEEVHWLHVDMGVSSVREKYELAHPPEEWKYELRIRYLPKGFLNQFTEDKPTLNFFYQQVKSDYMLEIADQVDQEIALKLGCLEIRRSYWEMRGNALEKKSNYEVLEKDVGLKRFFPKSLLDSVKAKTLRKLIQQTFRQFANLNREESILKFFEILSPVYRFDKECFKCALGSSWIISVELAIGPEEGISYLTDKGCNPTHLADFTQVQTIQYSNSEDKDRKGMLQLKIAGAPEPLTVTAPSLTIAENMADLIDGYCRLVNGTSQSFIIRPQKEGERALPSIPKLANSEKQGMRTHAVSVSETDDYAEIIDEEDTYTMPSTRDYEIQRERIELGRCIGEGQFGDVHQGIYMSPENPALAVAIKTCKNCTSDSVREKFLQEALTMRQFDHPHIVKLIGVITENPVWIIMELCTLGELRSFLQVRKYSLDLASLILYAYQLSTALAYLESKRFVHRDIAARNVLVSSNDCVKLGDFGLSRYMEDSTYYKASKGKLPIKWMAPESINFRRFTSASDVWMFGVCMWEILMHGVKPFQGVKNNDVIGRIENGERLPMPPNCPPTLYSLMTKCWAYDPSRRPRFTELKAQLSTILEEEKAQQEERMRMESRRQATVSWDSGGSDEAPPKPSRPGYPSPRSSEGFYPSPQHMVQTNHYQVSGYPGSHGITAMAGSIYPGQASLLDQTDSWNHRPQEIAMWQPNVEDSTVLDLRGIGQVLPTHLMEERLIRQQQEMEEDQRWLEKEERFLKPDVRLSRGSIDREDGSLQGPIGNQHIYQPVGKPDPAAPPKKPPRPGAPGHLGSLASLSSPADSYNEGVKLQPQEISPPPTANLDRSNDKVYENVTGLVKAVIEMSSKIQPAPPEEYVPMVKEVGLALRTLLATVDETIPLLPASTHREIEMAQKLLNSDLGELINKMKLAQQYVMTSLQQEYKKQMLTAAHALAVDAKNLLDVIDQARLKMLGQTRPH
# Procedure: (§1) Up to 518 different kinases have been identified in humans. They act on small molecules such as lipids, carbohydrates, amino acids, and nucleotides. To determine the scope of inhibitory effects of a representative compound of Formula (I) on known kinases, Compound 6 was tested against 104 commercially available kinases (Ambit Biosciences™) in vitro. 104 kinases included ABL1(E255K)-phosphorylated, ABL1(T315I)-phosphorylated, ABL1-phosphorylated, ACVR1B, ADCK3, AKT1, AKT2, ALK, AURKA, AURKB, AXL, BMPR2, BRAF, BRAF(V600E), BTK, CDK11, CDK2, CDK3, CDK7, CDK9, CHEK1, CSF1R, CSNK1D, CSNK1G2, DCAMKL1, DYRK1B, EGFR, EGFR(L858R), EPHA2, ERBB2, ERBB4, ERK1, FAK, FGFR2, FGFR3, FLT1, FLT3, FLT4, GSK3B, IGF1R, IKK-α, IKK-β, INSR, JAK2(JH1domain-catalytic), JAK3(JH1domain-catalytic), JNK1, JNK2, JNK3, KIT, KIT(D816V), KIT(V559D,T670I), LKB1, LRRK2, LRRK2(G2019S), MAP3K4, MAPKAPK2, MARK3, MEK1, MEK2, MET, MKNK1, MKNK2, MLK1, MTOR, p38-alpha, p38-beta, PAK1, PAK2, PAK4, PCTK1, PDGFRA, PDGFRB, PDPK1, PIK3C2B, PIK3CA, PIK3CG, PIM1, PIM2, PIM3, PKAC-alpha, PLK1, PLK3, PLK4, PRKCE, PYK2, RAFT, RET, RIOK2, ROCK2, RSK2, SNARK, SRC, SRPK3, SYK, TAK1, TGFBR1, TIE2, TRKA, TSSK1B, TYK2(JH1domain-catalytic), ULK2, VEGFR2, YANK3 and ZAP70.
# (§2) Inhibition activity of Compound 6 was reported as percent control where lower numbers indicate stronger activities. […] Conventionally, the percent control of less than 35 is deemed to be significant inhibition of kinase activity as the numeric value 35 is frequently used as a threshold.
# PDGFRB = molecular target: T2, PDGFRB (Homo sapiens, UniProt P09619); test: as above; type: binding; details: lower numbers indicate stronger activities
# T2 construct: purchased Ambit Biosciences
# T2 sequence (P09619 33-1106): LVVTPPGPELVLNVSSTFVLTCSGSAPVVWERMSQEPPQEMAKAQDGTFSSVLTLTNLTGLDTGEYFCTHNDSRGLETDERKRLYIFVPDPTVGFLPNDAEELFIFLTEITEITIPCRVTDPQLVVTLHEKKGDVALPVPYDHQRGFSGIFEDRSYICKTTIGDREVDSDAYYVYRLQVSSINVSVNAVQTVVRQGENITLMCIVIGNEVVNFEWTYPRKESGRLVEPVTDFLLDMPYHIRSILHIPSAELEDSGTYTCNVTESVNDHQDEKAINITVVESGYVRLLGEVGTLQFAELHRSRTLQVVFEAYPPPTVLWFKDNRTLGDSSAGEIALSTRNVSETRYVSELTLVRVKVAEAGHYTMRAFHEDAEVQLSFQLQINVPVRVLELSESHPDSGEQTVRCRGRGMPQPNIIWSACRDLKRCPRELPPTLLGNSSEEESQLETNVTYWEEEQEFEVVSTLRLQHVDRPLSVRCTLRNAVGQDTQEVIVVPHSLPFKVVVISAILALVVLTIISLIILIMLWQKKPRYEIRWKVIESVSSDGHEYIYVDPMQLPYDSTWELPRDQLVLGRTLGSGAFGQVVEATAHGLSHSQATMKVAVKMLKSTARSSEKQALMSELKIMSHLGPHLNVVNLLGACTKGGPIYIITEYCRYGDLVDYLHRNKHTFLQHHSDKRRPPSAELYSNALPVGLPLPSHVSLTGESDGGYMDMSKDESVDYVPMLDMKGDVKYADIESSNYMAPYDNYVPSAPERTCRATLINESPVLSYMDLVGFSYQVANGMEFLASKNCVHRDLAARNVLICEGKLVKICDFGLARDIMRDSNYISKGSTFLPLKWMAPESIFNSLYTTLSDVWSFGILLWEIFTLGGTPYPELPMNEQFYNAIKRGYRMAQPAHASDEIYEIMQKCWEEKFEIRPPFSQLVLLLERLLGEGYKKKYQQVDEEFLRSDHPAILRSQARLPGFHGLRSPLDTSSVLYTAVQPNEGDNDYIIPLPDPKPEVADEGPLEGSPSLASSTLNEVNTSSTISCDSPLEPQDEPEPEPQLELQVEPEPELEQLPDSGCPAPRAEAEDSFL
# Procedure: as §1, §2
# FLT3 = molecular target: T3, FLT3 (Homo sapiens, UniProt P36888); test: as above; type: binding; details: lower numbers indicate stronger activities
# T3 construct: purchased Ambit Biosciences
# T3 sequence (P36888 27-993): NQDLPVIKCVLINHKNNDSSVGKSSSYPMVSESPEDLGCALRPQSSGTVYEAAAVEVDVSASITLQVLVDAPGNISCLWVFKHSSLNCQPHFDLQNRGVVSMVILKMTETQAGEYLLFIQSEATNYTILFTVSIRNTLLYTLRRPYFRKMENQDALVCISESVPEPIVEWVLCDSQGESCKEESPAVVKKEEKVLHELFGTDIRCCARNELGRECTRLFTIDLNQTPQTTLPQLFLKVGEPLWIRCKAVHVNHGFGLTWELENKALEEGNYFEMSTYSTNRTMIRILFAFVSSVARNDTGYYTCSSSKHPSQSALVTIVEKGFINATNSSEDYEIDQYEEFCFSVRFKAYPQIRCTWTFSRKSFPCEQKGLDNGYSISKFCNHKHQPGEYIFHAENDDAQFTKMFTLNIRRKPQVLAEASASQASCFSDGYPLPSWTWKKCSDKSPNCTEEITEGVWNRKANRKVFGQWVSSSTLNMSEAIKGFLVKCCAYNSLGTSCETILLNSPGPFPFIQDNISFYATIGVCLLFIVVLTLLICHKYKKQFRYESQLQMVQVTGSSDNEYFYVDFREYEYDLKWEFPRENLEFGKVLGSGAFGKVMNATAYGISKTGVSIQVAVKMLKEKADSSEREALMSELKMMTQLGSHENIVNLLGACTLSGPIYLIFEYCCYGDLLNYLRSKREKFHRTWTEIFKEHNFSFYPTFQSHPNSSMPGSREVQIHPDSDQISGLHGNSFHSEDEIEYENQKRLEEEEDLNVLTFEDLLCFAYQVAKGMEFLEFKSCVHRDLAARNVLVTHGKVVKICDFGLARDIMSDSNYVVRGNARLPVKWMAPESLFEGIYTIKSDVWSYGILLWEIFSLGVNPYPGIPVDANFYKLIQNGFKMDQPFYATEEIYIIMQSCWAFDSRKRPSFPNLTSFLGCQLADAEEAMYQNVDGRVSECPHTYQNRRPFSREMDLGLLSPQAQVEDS
# Procedure: as §1, §2
# BMPR2 = molecular target: T4, BMPR2 (Homo sapiens, UniProt Q13873); test: as above; type: binding; details: lower numbers indicate stronger activities
# T4 construct: purchased Ambit Biosciences
# T4 sequence (Q13873 27-1038): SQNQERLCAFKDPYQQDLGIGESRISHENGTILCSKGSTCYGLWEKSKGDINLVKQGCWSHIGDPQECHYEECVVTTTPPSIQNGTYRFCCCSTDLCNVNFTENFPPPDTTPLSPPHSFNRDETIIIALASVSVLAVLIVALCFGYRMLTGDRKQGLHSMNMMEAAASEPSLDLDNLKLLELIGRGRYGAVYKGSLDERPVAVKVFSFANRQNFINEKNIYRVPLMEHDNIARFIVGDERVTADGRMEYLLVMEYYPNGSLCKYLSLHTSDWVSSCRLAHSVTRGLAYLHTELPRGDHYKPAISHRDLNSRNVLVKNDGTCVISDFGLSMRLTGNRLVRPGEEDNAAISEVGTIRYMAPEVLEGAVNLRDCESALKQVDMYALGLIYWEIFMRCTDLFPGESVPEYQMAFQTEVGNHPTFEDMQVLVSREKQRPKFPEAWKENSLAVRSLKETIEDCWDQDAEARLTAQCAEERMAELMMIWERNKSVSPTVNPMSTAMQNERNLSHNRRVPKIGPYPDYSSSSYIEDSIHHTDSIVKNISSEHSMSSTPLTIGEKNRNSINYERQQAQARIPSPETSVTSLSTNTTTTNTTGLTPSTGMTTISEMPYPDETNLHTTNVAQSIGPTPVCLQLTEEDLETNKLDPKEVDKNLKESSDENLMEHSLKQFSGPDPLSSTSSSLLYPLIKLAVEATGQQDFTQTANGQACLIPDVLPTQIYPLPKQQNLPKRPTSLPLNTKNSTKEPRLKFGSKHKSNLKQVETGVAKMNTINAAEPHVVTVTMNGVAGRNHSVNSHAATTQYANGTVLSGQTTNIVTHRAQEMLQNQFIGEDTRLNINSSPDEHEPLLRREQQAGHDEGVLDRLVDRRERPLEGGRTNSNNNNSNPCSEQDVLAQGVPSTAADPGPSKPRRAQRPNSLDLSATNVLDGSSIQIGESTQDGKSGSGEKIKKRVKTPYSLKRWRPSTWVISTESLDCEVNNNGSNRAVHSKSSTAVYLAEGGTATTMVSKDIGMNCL
# Procedure: as §1, §2
# HL-60(TB) = test: cells; type: cell-based; details: HL-60(TB) (Leukemia)
# HCT-116 = test: cells; type: cell-based; details: HCT-116 (Colon Cancer)
# NCI-H226 = test: cells; type: cell-based; details: NCI-H226 (NSCLC)
# OVCAR-8 = test: cells; type: cell-based; details: OVCAR-8 (Ovarian Cancer)
# SNB-19 = test: cells; type: cell-based; details: SNB-19 (CNS Cancer)
# 786-0 = test: cells; type: cell-based; details: 786-0 (Renal Cancer)
# HOP-92 = test: cells; type: cell-based; details: HOP-92 (NSCLC)
# TK-10 = test: cells; type: cell-based; details: TK-10 (Renal Cancer)
# T-47D = test: cells; type: cell-based; details: T-47D (Breast Cancer)
# UACC-257 = test: cells; type: cell-based; details: UACC-257 (Melanoma)
# NCI/ADR-RES = test: cells; type: cell-based; details: NCI/ADR-RES (Ovarian Cancer)
# SR = test: cells; type: cell-based; details: SR (Leukemia)
# SNB-75 = test: cells; type: cell-based; details: SNB-75 (CNS Cancer)
# [1] = Homo sapiens, read-out: LC50 (the source's name)
smiles,measurement,setting,value
"O=c1[nH]ccc2nc(N3CCC(O)CC3)nc(Nc3cccc(C(F)(F)F)c3)c12 [Compound 6, 2-(4-hydroxypiperidin-1-yl)-4-(3-(trifluoromethyl)phenylamino)pyrido[4,3-d]pyrimidine-5(6H)-one]",GI50,MDA-MB-468; Homo sapiens,1.78 µM
same,IC50,MDA-MB-468; Homo sapiens,4.68 µM
same,CC50,MDA-MB-468; [1],100 µM
same,TGI,MDA-MB-468,7.08 µM
same,GI50,SF-539; Homo sapiens,5.25 µM
same,IC50,SF-539; Homo sapiens,13.5 µM
same,CC50,SF-539; [1],100 µM
same,TGI,SF-539,38.9 µM
same,% inhibition (reported as percent control),FAK,34%
same,% inhibition (reported as percent control),PDGFRB,19%
same,% inhibition (reported as percent control),FLT3,28%
same,% inhibition (reported as percent control),BMPR2,0%
same,TGI,HL-60(TB),5.01 µM
same,GI50,HL-60(TB); Homo sapiens,0.871 µM
same,IC50,HL-60(TB); Homo sapiens,1.86 µM
same,CC50,HL-60(TB); [1],100 µM
same,TGI,HCT-116,12.3 µM
same,GI50,HCT-116; Homo sapiens,0.871 µM
same,IC50,HCT-116; Homo sapiens,1.32 µM
same,CC50,HCT-116; [1],75.9 µM
same,GI50,NCI-H226; Homo sapiens,3.24 µM
same,IC50,NCI-H226; Homo sapiens,8.32 µM
same,CC50,NCI-H226; [1],100 µM
same,TGI,NCI-H226,17.8 µM
same,GI50,OVCAR-8; Homo sapiens,3.31 µM
same,IC50,OVCAR-8; Homo sapiens,5.01 µM
same,CC50,OVCAR-8; [1],100 µM
same,TGI,OVCAR-8,40.7 µM
same,GI50,SNB-19; Homo sapiens,18.2 µM
same,IC50,SNB-19; Homo sapiens,64.6 µM
same,CC50,SNB-19; [1],100 µM
same,TGI,SNB-19,100 µM
same,TGI,786-0,100 µM
same,GI50,786-0; Homo sapiens,2.04 µM
same,IC50,786-0; Homo sapiens,8.13 µM
same,CC50,786-0; [1],100 µM
same,TGI,HOP-92,100 µM
same,GI50,HOP-92; Homo sapiens,100 µM
same,IC50,HOP-92; Homo sapiens,≥ 100 µM
same,CC50,HOP-92; [1],100 µM
same,GI50,TK-10; Homo sapiens,6.03 µM
same,IC50,TK-10; Homo sapiens,36.3 µM
same,CC50,TK-10; [1],100 µM
same,TGI,TK-10,44.7 µM
same,GI50,"T-47D; Homo sapiens, T47D",3.09 µM
same,IC50,"T-47D; Homo sapiens, T47D",8.51 µM
same,CC50,"T-47D; Homo sapiens, T47D, read-out: LC50 (the source's name)",100 µM
same,TGI,T-47D,26.3 µM
same,GI50,UACC-257; Homo sapiens,4.27 µM
same,IC50,UACC-257; Homo sapiens,8.71 µM
same,CC50,UACC-257; [1],45.7 µM
same,TGI,UACC-257,12.9 µM
same,GI50,NCI/ADR-RES; Homo sapiens,2.34 µM
same,IC50,NCI/ADR-RES; Homo sapiens,4.37 µM
same,CC50,NCI/ADR-RES; [1],100 µM
same,TGI,NCI/ADR-RES,7.41 µM
same,GI50,SR; Homo sapiens,0.708 µM
same,IC50,SR; Homo sapiens,2.51 µM
same,CC50,SR; [1],100 µM
same,TGI,SR,26.9 µM
same,GI50,SNB-75; Homo sapiens,5.75 µM
same,IC50,SNB-75; Homo sapiens,77.6 µM
same,CC50,SNB-75; [1],100 µM
same,TGI,SNB-75,81.3 µM
